Measured values as given in patent US20240358829A1, “Lymphocyte Population and Methods for Producing Same” (AVM Biotechnology, LLC, priority 2021, published 2024).
Values joined by “and” are separate entries in the source; they are usually repeats but may differ in a detail not shown here. Identical values can stand only once.

Test system: CD56+γδTCR+iTCR+ cells
Assay: AVM0703 R/R NHL clinical trial, whole blood flow cytometry
Format: in vivo, human
Experimental: FIG. 15. 101-001 size (FSC) and complexity (SSC) scattergram of AVM_NKT cells. […] Blood was stained with panel antibodies based for 15 minutes in the dark at Room Temperature. RBC lysis was performed by addition of 1 mL of 1×BD FACS Lysing Solution (BD Bioscience), diluted with MilliQ water, for 10 minutes in the dark at Room Temperature. Samples were washed with 2 mL 1×DPBS CMF (Gibco) and resuspended in 300 μL of 1×DPBS CMF before 5 μL of 7AAD (Biolegend) was added to each sample for live/dead cell determination and incubated for 5 minutes in the dark at Room Temperature. 250 μL of sample were taken up for acquisition on Macsquant 16 Flow Cytometer (Miltenyi, Serial #40150). Live white blood cells were gated for CD56+ cells co-expressing gamma delta TCR and the invariant TCR and labelled red in the forward versus side scattergram. Red-labelled cells fall within the forward versus side scattergrams where large granular cells such as neutrophils and large granular lymphocytes are known to fall.
For characterisation of the induced/mobilized population of NKT-like cells (AVM-NKT) in humans, whole blood from human subjects was drawn in K2 EDTA Vacutainer tube (367862, BD Biosciences, NJ) and shipped to AVM Biotechnology at room temperature. 100 μl of whole blood was stained with the following antibodies: CD45 AF700 (2D1), CD16 APC (3G8), INKT PECy7 (6B11), CD8 PE (SK1), CD14 FITC (M5E2), CD56 BV650 (5.1H11), γδTCR BV510 (B1), CD19 BV421 (HIB19), NKp44 APC (P44-8) (all from Biolegend, San Diego, CA) and CD3 APCVio770 (BW264/56), (Miltenyi Biotec, San Jose, CA), 7-AAD, (Biolegend, San Diego CA) was included to distinguish the live and dead cells.

[1] = patient 101-001, 6 mg/kg, 1 hour post-infusion
[2] = patient 101-001, 6 mg/kg, Day 14
[3] = patient 103-002, 6 mg/kg, 1 hour post-infusion
[4] = patient 103-002, 6 mg/kg, Day 3
[5] = patient 103-002, 6 mg/kg, Day 14
[6] = patient 103-005, 9 mg/kg, 1 hour post-infusion
[7] = patient 103-005, 9 mg/kg, Day 3
[8] = patient 103-005, 9 mg/kg, Day 14
[9] = patient 103-006, 9 mg/kg, day 3
[10] = patient 103-006, 9 mg/kg, day 14
[11] = patient 108-001, 1st 9 mg/kg infusion, 1 hour

`C[C@@H]1C[C@H]2[C@@H]3CCC4=CC(=O)C=C[C@]4(C)[C@@]3(F)[C@@H](O)C[C@]2(C)[C@@]1(O)C(=O)COP(=O)(O)O` [AVM0703, dexamethasone sodium phosphate] was tested, and the “time to mobilization of bi-specific gamma delta TCR+ invariant TCR+ cell into the blood” value (R/R NHL clinical trial patients, dosing between 6 mg/kg and 18 mg/kg) was 30 to 60 min, the “CD56+gdTCR+ inv TCR+ cells induced” value (patient 101-001, 6 mg/kg) was “YES” and the “CD3 (as % of CD56+ γδTCR+ iTCR+ cells)” value [1] was 39%. For the same compound, the “CD8med (as % of CD56+ γδTCR+ iTCR+ cells)” value [1] was 86%, the “CD19+ (as % of CD56+ γδTCR+ iTCR+ cells)” value [1] was 54% and the “CD45 (as % of CD56+ γδTCR+ iTCR+ cells)” value [1] was 99%. For the same compound, the “CD56+ γδTCR+ iTCR+ % of total WBCs” value [1] was 0.24%, the “CD56+ γδTCR+ iTCR+ cells/uL” value [1] was 11.4 cells/uL and the “TCRαβ (as % of CD56+ γδTCR+ iTCR+ cells)” value [1] was 100%. For the same compound, the “CD3 (as % of CD56+ γδTCR+ iTCR+ cells)” value [2] was 99%, the “CD8med (as % of CD56+ γδTCR+ iTCR+ cells)” value [2] was 94% and the “CD19+ (as % of CD56+ γδTCR+ iTCR+ cells)” value [2] was 22%. The “CD45 (as % of CD56+ γδTCR+ iTCR+ cells)” value [2] was 99.5%, the “CD56+ γδTCR+ iTCR+ % of total WBCs” value [2] was 1.74% and the “CD56+ γδTCR+ iTCR+ cells/uL” value [2] was 78.7 cells/uL and 79 cells/uL. The “TCRαβ (as % of CD56+ γδTCR+ iTCR+ cells)” value [2] was 99%, the “CD56+γδTCR+ cells, % of all CD45+ cells” value (patient 101-001, one hour after 6 mg/kg infusion (pre-infusion 1.6%)) was 3.48% and the “CD56+γδTCR+ cells/uL blood” value (patient 101-001, one hour after 6 mg/kg infusion (pre-infusion 76)) was 165 cells/uL blood. For the same compound, the “% of CD56+γδTCR+ cells co-expressing invTCR” value (patient 103-002, 6 mg/kg) was “about 10%”, the “CD56+gdTCR+ inv TCR+ cells induced” value (patient 103-002, 6 mg/kg) was “YES” and the “CD3 (as % of CD56+ γδTCR+ iTCR+ cells)” value [3] was 4.2%. For the same compound, the “CD8hi (as % of CD56+ γδTCR+ iTCR+ cells)” value [3] was 2.6%, the “CD8med (as % of CD56+ γδTCR+ iTCR+ cells)” value [3] was 2.9% and the “CD19+ (as % of CD56+ γδTCR+ iTCR+ cells)” value [3] was 0.78%. For the same compound, the “CD45 (as % of CD56+ γδTCR+ iTCR+ cells)” value [3] was 92%, the “CD56+ γδTCR+ iTCR+ % of total WBCs” value [3] was 0.83% and the “CD56+ γδTCR+ iTCR+ cells/uL” value [3] was 65.6 cells/uL. For the same compound, the “TCRαβ (as % of CD56+ γδTCR+ iTCR+ cells)” value [3] was 79%, the “CD56+γδTCR+ cells, % of all CD45+ cells” value (patient 103-002, 6 mg/kg, 1 hour post-infusion (pre-infusion 9.3%)) was 6.54% and the “CD56+γδTCR+ cells/uL blood” value (patient 103-002, 6 mg/kg, 1 hour post-infusion (pre-infusion 735)) was 517 cells/uL blood. For the same compound, the “CD3 (as % of CD56+ γδTCR+ iTCR+ cells)” value [4] was 67%, the “CD8hi (as % of CD56+ γδTCR+ iTCR+ cells)” value [4] was 2% and the “CD8med (as % of CD56+ γδTCR+ iTCR+ cells)” value [4] was 30%. The “CD19+ (as % of CD56+ γδTCR+ iTCR+ cells)” value [4] was 4% and 4.2%, the “CD45 (as % of CD56+ γδTCR+ iTCR+ cells)” value [4] was 17% and the “CD56+ γδTCR+ iTCR+ % of total WBCs” value [4] was 1.99%. The “CD56+ γδTCR+ iTCR+ cells/uL” value [4] was 366 cells/uL and 366.2 cells/uL, the “TCRαβ (as % of CD56+ γδTCR+ iTCR+ cells)” value [4] was 54% and the “CD3 (as % of CD56+ γδTCR+ iTCR+ cells)” value [5] was 31.5%. The “CD8hi (as % of CD56+ γδTCR+ iTCR+ cells)” value [5] was 2.4%, the “CD8med (as % of CD56+ γδTCR+ iTCR+ cells)” value [5] was 70% and the “CD19+ (as % of CD56+ γδTCR+ iTCR+ cells)” value [5] was 1.76%. The “CD45 (as % of CD56+ γδTCR+ iTCR+ cells)” value [5] was 98%, the “CD56+ γδTCR+ iTCR+ % of total WBCs” value [5] was 0.42% and the “CD56+ γδTCR+ iTCR+ cells/uL” value [5] was 27 cells/uL. The “TCRαβ (as % of CD56+ γδTCR+ iTCR+ cells)” value [5] was 78%, the “CD56+gdTCR+ inv TCR+ cells induced” value (patient 103-004, 6 mg/kg) was “YES” and the “CD56+gdTCR+ inv TCR+ cells induced” value (patient 103-005, 9 mg/kg) was “YES”. For the same compound, the “CD3 (as % of CD56+ γδTCR+ iTCR+ cells)” value [6] was 6%, the “CD8med (as % of CD56+ γδTCR+ iTCR+ cells)” value [6] was 17% and the “CD14+ (as % of CD56+ γδTCR+ iTCR+ cells)” value [6] was 76%. The “CD16 (as % of CD56+ γδTCR+ iTCR+ cells)” value [6] was 66%, the “CD19+ (as % of CD56+ γδTCR+ iTCR+ cells)” value [6] was 33.9% and the “CD45 (as % of CD56+ γδTCR+ iTCR+ cells)” value [6] was 99%. The “CD56+ γδTCR+ iTCR+ % of total WBCs” value [6] was 0.87%, the “CD56+ γδTCR+ iTCR+ cells/uL” value [6] was 21.8 cells/uL and the “CD3 (as % of CD56+ γδTCR+ iTCR+ cells)” value [7] was 10%. For the same compound, the “CD8med (as % of CD56+ γδTCR+ iTCR+ cells)” value [7] was 15%, the “CD14+ (as % of CD56+ γδTCR+ iTCR+ cells)” value [7] was 8% and the “CD16 (as % of CD56+ γδTCR+ iTCR+ cells)” value [7] was 84%. The “CD19+ (as % of CD56+ γδTCR+ iTCR+ cells)” value [7] was 28%, the “CD45 (as % of CD56+ γδTCR+ iTCR+ cells)” value [7] was 63% and the “CD56+ γδTCR+ iTCR+ % of total WBCs” value [7] was 2.67%. The “CD56+ γδTCR+ iTCR+ cells/uL” value [7] was 82.8 cells/uL, the “CD3 (as % of CD56+ γδTCR+ iTCR+ cells)” value [8] was 66% and the “CD8med (as % of CD56+ γδTCR+ iTCR+ cells)” value [8] was 16%. The “CD14+ (as % of CD56+ γδTCR+ iTCR+ cells)” value [8] was 81%, the “CD16 (as % of CD56+ γδTCR+ iTCR+ cells)” value [8] was 37% and the “CD19+ (as % of CD56+ γδTCR+ iTCR+ cells)” value [8] was 99%. The “CD45 (as % of CD56+ γδTCR+ iTCR+ cells)” value [8] was 84%, the “CD56+ γδTCR+ iTCR+ % of total WBCs” value [8] was 0.66% and the “CD56+ γδTCR+ iTCR+ cells/uL” value [8] was 22.4 cells/uL. The “CD56+γδTCR+ cells, % of CD45+ cells” value (patient 103-005, one hour after 9 mg/kg (baseline 2.7%)) was 0.21%, the “% of CD56+γδTCR+ cells expressing CD16” value [9] was 92% and the “% of CD56+γδTCR+ cells expressing NKp44” value [9] was 19%. For the same compound, the “CD56+γδTCR+ cells, % of all WBCs” value [9] was 2.2%, the “ICAM3 MFI of CD56+γδTCR+ cells” value [9] was 240 and the “% of CD56+γδTCR+ cells expressing CD16” value [10] was 92%. For the same compound, the “% of CD56+γδTCR+ cells expressing NKp44” value [10] was 19%, the “CD56+γδTCR+ cells, % of all WBCs” value [10] was 2.2% and 0.11% and the “ICAM3 MFI of CD56+γδTCR+ cells” value [10] was 240. For the same compound, the “CD56+γδTCR+ cells, number or expression in the blood” value (patient 103-006, one hour after 9 mg/kg) was “had not changed”, the “% of CD56+γδTCR+ cells NKp44+” value (patient 103-006, one hour after 9 mg/kg (baseline 42%)) was 25% and the “ICAM3 MFI of CD56+γδTCR+ cells” value (patient 103-006, one hour after 9 mg/kg (baseline 294)) was “no change”. For the same compound, the “CD56+gdTCR+ inv TCR+ cells induced” value (patient 108-001, 9 mg/kg) was “YES”, the “CD3 (as % of CD56+ γδTCR+ iTCR+ cells)” value [11] was 4% and the “CD8hi (as % of CD56+ γδTCR+ iTCR+ cells)” value [11] was 1%. For the same compound, the “CD8med (as % of CD56+ γδTCR+ iTCR+ cells)” value [11] was 11%, the “CD14+ (as % of CD56+ γδTCR+ iTCR+ cells)” value [11] was 35% and the “CD16 (as % of CD56+ γδTCR+ iTCR+ cells)” value [11] was 90%. For the same compound, the “CD19+ (as % of CD56+ γδTCR+ iTCR+ cells)” value [11] was 11.3%.
